Measured values: patent US20150148256A1, “BIOLUMINESCENCE IMAGING-BASED SCREENING ASSAY AND INHIBITORS OF ABCG2” (THE JOHNS HOPKINS UNIVERSITY, priority 2008, published 2015)
Counter-ions that a name gives are not always drawn.

Target: T1, ABCG2 (Homo sapiens, UniProt Q9UNQ0)
T1 sequence (Q9UNQ0 1-655): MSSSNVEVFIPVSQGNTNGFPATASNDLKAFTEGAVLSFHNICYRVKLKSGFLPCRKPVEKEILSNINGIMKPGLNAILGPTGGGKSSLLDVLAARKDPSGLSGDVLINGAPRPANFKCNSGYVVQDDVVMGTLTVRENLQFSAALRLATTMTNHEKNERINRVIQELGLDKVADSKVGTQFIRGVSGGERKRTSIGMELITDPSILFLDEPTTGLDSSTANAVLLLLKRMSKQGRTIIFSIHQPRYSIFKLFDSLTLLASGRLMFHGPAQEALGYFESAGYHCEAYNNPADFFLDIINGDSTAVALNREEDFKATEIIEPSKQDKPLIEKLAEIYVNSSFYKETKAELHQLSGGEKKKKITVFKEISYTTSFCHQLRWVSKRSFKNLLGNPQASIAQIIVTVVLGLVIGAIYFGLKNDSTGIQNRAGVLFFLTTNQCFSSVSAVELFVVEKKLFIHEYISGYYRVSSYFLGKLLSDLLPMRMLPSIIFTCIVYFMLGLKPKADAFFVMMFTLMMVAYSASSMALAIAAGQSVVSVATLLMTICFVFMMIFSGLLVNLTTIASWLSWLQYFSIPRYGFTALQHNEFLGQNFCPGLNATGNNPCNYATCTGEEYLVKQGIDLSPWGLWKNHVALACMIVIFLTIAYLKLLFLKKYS
Test: Bioluminescence imaging (BLI) assay in HEK293/ABCG2/fLuc cells
Settings: not given
Procedure: HEK293/ABCG2/fLuc cells were plated into 96-well plates at a density of 4×10^4 cells/100 μL per well and were allowed to attach overnight. The following day, 10 μL of each compound or the control solvent was transferred from a compound library in a 96-well, high-throughput format into the wells using a multichannel pipette. […] Images were taken every 5 minutes for ˜1 h. Light output from each well was quantified at the 40 min time point after initiation of imaging, and the signal-to-background (S/B) ratio of the light output from each compound divided by that from the control well was calculated. This S/B ratio serves as an indicator of the potency of ABCG2 inhibition, the mechanism by which BLI signal is enhanced.
Images were taken every 5 min for ˜1 h, and light output from each well at the 40 min time point was chosen for quantification. The SB ratio of the light output from each compound divided by that from the control well was calculated. This ratio was used as an indicator of the potency of ABCG2 inhibition, the mechanism by which BLI signal is enhanced.
The BLI signal-enhancing effect of selected ABCG2 inhibitors was evaluated within the range of 0.001 μM-100 μM, with HEK293/ABCG2/fLuc cells and 50 μg/mL D-luciferin. The data obtained at 40 min after imaging commencement were chosen arbitrarily to be plotted (FIG. 3).

Compound	Fold (BLI enhancement, S/B ratio over control) [fold]	IC50 [µM]
CS(=O)(=O)O.O=C(O[C@H]1C[C@H]2CC3C[C@@H](C1)N2CC3=O)c1c[nH]c2ccccc12 [dolasetron mesylate]	3.0	
COc1cc2nc(N3CCN(C(=O)C4COc5ccccc5O4)CC3)nc(N)c2cc1OC (stereo not drawn) [doxazosin mesylate]		8
Cl.Cl.OCCN1CCN(CCCN2c3ccccc3Sc3ccc(C(F)(F)F)cc32)CC1 [flufenazine hydrochloride]	4.3	
FC(F)(F)c1ccc2c(c1)N(CCCN1CCN(CCCl)CC1)c1ccccc1S2 [fluphenazine N-mustard]	3.6	

Same assay, conditions: Table 2; HEK293/ABCG2/fLuc cells, compound approximately 17 μM, ~50 μg/mL D-luciferin, 40 min time point

Compound	Fold (BLI enhancement, S/B ratio over control) [fold]
Cc1c2ccncc2c(C)c2c1[nH]c1ccccc12 [ellipticine]	2.5
C[C@]12CC[C@@H]3c4ccc(O)cc4CC[C@H]3[C@@H]1CC[C@@H]2OC(=O)CCC1CCCC1 [estradiol cypionate]	3.6
COc1ccc(CCN(C)CCCC(C#N)(c2cc(OC)c(OC)c(OC)c2)C(C)C)cc1OC (stereo not drawn) [gallopamil]	2.4

Same assay, conditions: human, 40 min, 17 μM

Compound	Fold (BLI enhancement, S/B ratio over control) [fold]	BLI signal enhancement [fold]	Fold (BLI enhancement), previously unknown compounds [fold]	fold (BLI enhancement), additional previously known ABCG2 inhibitors [fold]
O=c1[nH]c2ccccc2n1CCCN1CCC(n2c(=O)[nH]c3cc(Cl)ccc32)CC1 [domperidone]	2.5			
COc1cc2nc(N3CCN(C(=O)C4COc5ccccc5O4)CC3)nc(N)c2cc1OC (stereo not drawn) [doxazosin mesylate]		16		
Clc1ccc(COC(Cn2ccnc2)c2ccc(Cl)cc2Cl)cc1 (stereo not drawn) [econazole]	2.5			
Cc1cc(O)c2c(c1)C(=O)c1cc(O)cc(O)c1C2=O [emodin]	6.4		6.4	
CCC(=O)O[C@H]1CC[C@H]2[C@@H]3CCc4cc(O)ccc4[C@H]3CC[C@]12C [estradiol propionate]	2.6			
C[C@]12CC[C@@H]3c4ccc(O)cc4CC[C@H]3[C@@H]1CC[C@@H]2O [estradiol]				3.6
CC(=O)Oc1ccc2c(c1)CCC1C2CC[C@]2(C)C(=O)CCC12 (stereo partly drawn) [estrone acetate]	4.1			
C[C@]12CC[C@@H]3c4ccc(O)cc4CC[C@H]3[C@@H]1CCC2=O [estrone]				4.1
CCOc1ccc(Cc2nccc3cc(OCC)c(OCC)cc23)cc1OCC [ethaverine hydrochloride]	2.6			
C#C[C@]1(O)CC[C@H]2[C@@H]3CCc4cc(O)ccc4[C@H]3CC[C@@]21C [ethinyl estradiol]	2.4			
COc1ccc(-c2cc(=O)c3c(O)c(OC)c(OC)cc3o2)cc1O [eupatorin]	5.6		5.6	
C=C1C[C@@H]2[C@H](CC[C@]3(C)C(=O)CC[C@@H]23)[C@@]2(C)C=CC(=O)C=C12 [exemestane]	2.1			
CCOC(=O)C1=C(C)NC(C)=C(C(=O)OC)C1c1cccc(Cl)c1Cl (stereo not drawn) [felodipine]	3.0			
CC(C)OC(=O)C(C)(C)Oc1ccc(C(=O)c2ccc(Cl)cc2)cc1 [fenofibrate]	2.3			
O=c1[nH]c(=O)n([C@H]2C[C@H](O)[C@@H](CO)O2)cc1F [floxuridine]	2.2			
COC(=O)Nc1nc2cc(C(=O)c3ccc(F)cc3)ccc2[nH]1 [flubendazole]	6.3		6.3	
Fc1ccc(C(c2ccc(F)cc2)N2CCN(C/C=C/c3ccccc3)CC2)cc1 [flunarizine hydrochloride]	2.9			
OCCN1CCN(CCCN2c3ccccc3Sc3ccc(C(F)(F)F)cc32)CC1 [fluphenazine]	2.0			
CC(C)=CCC[C@]1(C)C=Cc2c(O)c3c(c(CC=C(C)C)c2O1)O[C@]12C(=C[C@@H]4C[C@H]1C(C)(C)O[C@@]2(C/C=C(/C)C(=O)O)C4=O)C3=O [gambogic acid]	6.0		6.0	
